From PubChem BioAssay (NCI)
Values joined by “and” are separate entries in the source; they are usually repeats but may differ in a detail not shown here. Equal entries are not always repeated.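 Five concentrations, 48 hours, 96-well plates. GI50 is the concentration that inhibits growth by half. Definition used: TGI = concentration required for complete inhibition of growth.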

Test system: MDA-MB-468 breast
Assay: NCI anticancer screen, dose series, 48 h

| Structure (SMILES) | GI50 | TGI |
| --- | --- | --- |
| O=c1cc(-c2ccccc2)[nH]c2c1CCCC2 | 1570 nM | 4990 nM |
| Cc1nn(C)c2ncnc(N/N=C/c3cccc(O)c3O)c12 | 2170 nM | 6530 nM |
| CN1CCN(C(=O)c2ccc(NC(=O)Nc3ccc(-c4nc(N5CCOCC5)c5cccn5n4)cc3)cc2)CC1 | 21 nM | 77 nM |
| Nc1c(C(=O)c2cccc(C(O)CO)c2)cnn1-c1ccc(F)cc1 (stereo unspecified) | > 25000 nM | > 25000 nM |
| CCN1CCN(c2cc(C(=O)Nc3cccc(Nc4ccc5c(OC)cccc5n4)c3)cc(C(F)(F)F)c2)CC1 | 749 nM | 4050 nM |
| O=C(O)COc1ccc(OCC(=O)O)cc1 | 326 nM | 2090 nM |
| Nc1nc(Cl)nc2c1ncn2C1OC(CO)C(O)C1F (stereo unspecified) | 285 nM | 891 nM |
| CC(C)[P+](c1ccccc1)(c1ccccc1)c1ccccc1 | 1120 nM | 10700 nM |
| O=C1C(N2CCN(CCOCCO)CC2)=C(Cl)C(=O)c2ncccc21 | 19300 nM | 39300 nM |
| O=C(Nc1ccc(-n2cc(-c3ccncc3)c(-c3ccc(O)c(Cl)c3)n2)cc1)c1ccc(Cl)c(C(F)(F)F)c1 | 2590 nM | 48400 nM |
| Cc1c(Nc2nccc3cc(CN4CC[C@@H](O)C4)cnc23)cccc1-c1cccc(-c2nc3cc(CN4CC[C@@H](C(=O)O)C4)cc(C#N)c3o2)c1C | 11200 nM | 35200 nM |
| CN1CCN(Cc2ccc(NC(=O)c3cncc(C#Cc4cnc5ccc(NC6CCOCC6)nn45)c3)cc2C(F)(F)F)CC1 | 33.8 nM and 19.6 nM | 222 nM and 67.2 nM |
| O=C1NC(=O)C(=Cc2cn(Cc3ccccc3)c3ccccc23)C(=O)N1 | 142 nM | 390 nM |
| COc1cc(F)c(F)cc1C(=O)c1cnc(NC2CCN(S(C)(=O)=O)CC2)nc1N | 3650 nM | 10800 nM |
| COC1=C(OC)C(=O)C(C/C=C(\C)CC/C=C(\C)CC/C=C(\C)CC/C=C(\C)CC/C=C(\C)CC/C=C(\C)CC/C=C(\C)CC/C=C(\C)CC/C=C(\C)CCC=C(C)C)=C(C)C1=O | > 100000 nM | > 100000 nM |
| COc1ccc2nc(C)cc(Sc3nc4ccccc4s3)c2c1 | 2200 nM | 11400 nM |

| Structure (SMILES) | GI50 | TGI |
| --- | --- | --- |
| COc1ccc(Nc2ncnc3ccc(-c4cncc(NS(C)(=O)=O)c4)cc23)cc1Cl | 785 nM | 3100 nM |
| COc1cc2nc(N3CCC[C@H](NC4=CC(=O)c5ccccc5C4=O)C3)nc(N)c2cc1OC | 1790 nM | 3530 nM |
| O=C1OCC2=C1C(c1cccc(C(F)(F)F)c1)c1cc3c(cc1N2CCO)OCCO3 (stereo unspecified) | 1410 nM | > 33300 nM |
| O=C1NC(=O)C(c2cccc(Cl)c2)=C1Nc1ccc(Cl)c(C(=O)O)c1 | > 25000 nM | > 25000 nM |
| CCN(CC)CCCNCc1cc(-c2ccccc2)nc2cc(Cl)ccc12 | 1930 nM | 3920 nM |
| CC(=O)c1c[nH]c2ccc(-c3ccnc(Nc4ccc(NC(=O)C5CCCC5)c(CN5CCOCC5)c4)n3)cc12 | 21.9 nM | 77.4 nM |
| CN1CCN(Cc2ccc(NC(=O)c3[nH]ncc3Nc3ncnc4[nH]ccc34)cc2)CC1 | 247 nM | 562 nM |
| Cc1cc(=O)[nH]c(N/N=C/c2ccccc2O)n1 | 3030 nM | 46900 nM |
| NC1=NC(SCc2ccccc2CCl)c2ncn(Cc3ccccc3CCl)c2N1 (stereo unspecified) | 1710 nM | 3720 nM |
| CC(C)C[C@H](NC(=O)Cn1cccc(CNC(=O)c2ccccc2)c1=O)B(O)O | 139 nM | 716 nM |
| COc1ccc(C2NN=C3c4ccccc4CCC32)cc1 (stereo unspecified) | – | 41.6 nM |
| COC(=O)CCC(=O)NC1=C(Nc2ccccc2)C(=O)c2ccccc2C1=O | 3040 nM | 10500 nM |
| CN1CCN(CCCOc2ccc3nc(Nc4ccc(F)c(F)c4)ccc3c2)CC1 | 1370 nM | 4360 nM |
| CN(C)CCN1C(=O)c2cccc3c(/C=C/CN4C(=O)c5cccc6cccc(c56)C4=O)ccc(c23)C1=O | 14000 nM | 34300 nM |
| CC1=C(CO)C(=O)O[C@@H]([C@@H](C)[C@H]2CC[C@H]3[C@@H]4C[C@H]5O[C@]56[C@@H](O)C=CC(=O)[C@]6(C)[C@H]4CC[C@]23C)C1 | 278 nM | 1210 nM |
